Like-named read-outs stand apart in the source and are kept apart here.

One assay concerns the target T1, k opioidergic receptors (Mus musculus, UniProt P33534).
T1 construct: the complete brain (excluding the cerebellum) was quickly dissected and stored in ice; from tissue; host or cells: CD1 mouse brain (excluding cerebellum) membranes
Briefly: Radioreceptorial binding, k opioidergic receptors (3H-U 69.593, mouse brain membranes). The text has this:
The affinity of the compounds synthesized towards the opioidergic receptors μ, δ, k has been evaluated in vitro by radioreceptorial binding studies by using the method reported hereinunder.
For evaluating the affinity of a compound to a particular receptor(s) it is used a preparation of a tissue wherein the particular receptor(s) is (are) present, with which the compound is contacted. The tested compound is challenged with a radioactive labelled compound whose affinity for the same receptor(s) is known. The ability of the tested compound to displace the radioactive compound from the receptor gives an index of the affinity of the compound under test for the specific receptor. The amount of radioactivity present in the receptor-compound complex allows furthermore to calculate with great accuracy the amount of compound bound to the receptor. By said method it is therefore possible to quickly establish the affinity of a new compound towards a specific receptor and thus determine its pharmacological activity. With the same experimental protocol it is possible to evaluate the affinity of the compound towards other receptors and thus establishing the specificity degree of the compound towards these further receptors.
The experimentation has been carried out according to the guide lines of the European Community for the animal experimentation (EEC n. 86/609), by using laboratory animals (CD1 Charles River Italy male mice, Calco, LC, Italy) lodged twenty per cage, under standard stabulation conditions (temperature 22±2° C., relative humidity 60%, artificial lighting with light/dark cycle of 12 hours). The food and water were ad libitum.
Receptors k: CD1 male mice weighing 20-25 g were used. The animals were sacrificed by cervical dislocation and the complete brain (excluding the cerebellum) was quickly dissected and stored in ice. The tissue was homogeneized in 40 volumes (w/v) of Tris-HCl buffer (50 Mm, pH 7.4) by an Ultra-Turrax, then centrifuged for 20 minutes at 48,000×g in a centrifuge refrigerated at 4° C. The […] was resuspended in the same buffer and incubated at 37° C. for 30 minutes in an oscillating bath. At the end of the incubation the suspension was centrifuged at 48,000×g for 15 minutes and the obtained pellets resuspended in 10 volumes of Tris-HCl buffer. The binding experiment was carried out in a 1 ml volume of the suspension at the temperature of 25° C. with a protein content in the sample of about 800-1000 μg. Incubation was carried out for 60 minutes in the presence of various concentrations of the ligand ^3H-U 69.593 (41.7 Ci/mmole). The non specific binding was determined in the presence of U69593 (10 μM). Incubation was then interrupted by performing a quick filtration by filtration apparatus Brandell®, Gaithersburg, Md., USA), by using GF/C filters (Whatman®). Receptors μ and δ: the experiments were carried out according to the method described by Unterwald (1995), by using CD1 male mice weighing 20-25 g, lodged twenty in a cage, under standard stabulation conditions (temperature 22±2° C., relative humidity 60%, artificial lighting with light/dark cycle of 12 hours). After sacrifice, the complete brain (excluding the cerebellum) was quickly dissected. The so obtained tissues were rapidly homogenized, by a Polytron® equipment in 50 volumes of Tris HCl buffer (50 mM), pH 7.4 and the homogenate centrifuged at 48,000×g for 20 minutes at 4° C. The pellets obtained after centrifugation were suspended in 50 volumes of the same buffer and the so prepared suspensions were incubated at 37° C. for 45 minutes, in an oscillating bath, for making easier the separation of the endogenous opioids from the receptors. At the end of the incubation the suspensions were centrifuged at 48,000×g, for 20 minutes at 4° C. and the resulting pellets resuspended in 40 volumes of the Tris HCl (50 mM) buffer, pH 7.4. The suspension of cerebral membranes was used for the binding tests. […]

The next assay deals with T2, δ opioidergic receptors (Mus musculus, UniProt P32300).
T2 construct: from tissue; host or cells: CD1 mouse vas deferens segments (isolated organ)
Description: Radioreceptorial binding, δ opioidergic receptors ([3H]-DPDPE, mouse brain membranes). The following applies: 1 nM [3H]-DPDPE, CD1 mouse brain membranes, 25° C., 60 minutes.

T2 sequence (P32300 whole entry): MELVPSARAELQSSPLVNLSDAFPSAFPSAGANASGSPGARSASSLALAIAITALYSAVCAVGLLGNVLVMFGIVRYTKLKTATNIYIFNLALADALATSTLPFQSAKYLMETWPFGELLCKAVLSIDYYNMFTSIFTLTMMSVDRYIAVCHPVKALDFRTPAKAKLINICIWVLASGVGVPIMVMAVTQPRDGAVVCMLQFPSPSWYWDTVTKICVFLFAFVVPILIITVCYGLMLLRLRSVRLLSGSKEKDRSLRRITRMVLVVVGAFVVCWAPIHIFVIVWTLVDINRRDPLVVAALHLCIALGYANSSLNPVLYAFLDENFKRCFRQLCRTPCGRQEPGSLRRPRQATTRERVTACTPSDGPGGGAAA
T1 sequence (P33534 whole entry): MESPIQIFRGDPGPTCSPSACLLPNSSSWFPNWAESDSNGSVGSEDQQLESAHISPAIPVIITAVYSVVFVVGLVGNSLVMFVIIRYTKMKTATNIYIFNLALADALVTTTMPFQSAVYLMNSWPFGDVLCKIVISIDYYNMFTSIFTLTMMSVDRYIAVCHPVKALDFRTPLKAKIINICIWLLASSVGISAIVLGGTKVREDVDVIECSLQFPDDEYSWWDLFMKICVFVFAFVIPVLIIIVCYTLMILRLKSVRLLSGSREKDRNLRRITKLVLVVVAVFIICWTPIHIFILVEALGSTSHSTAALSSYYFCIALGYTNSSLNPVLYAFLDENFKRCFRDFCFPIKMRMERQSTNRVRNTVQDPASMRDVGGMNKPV

Broadly, the Ki is the equilibrium dissociation constant of an inhibitor or competing ligand from its target. For the molecule `C=CCN1C2CCC1C1CCC2N1C(c1ccc(C(=O)N(CC)CC)cc1)c1cccc(O)c1` (stereo not shown) [Example 6.9, 4-[(10-allyl-9,10-diazatricyclo[4.2.1.1^2,5]dec-9-yl)-(3-hydroxyphenyl)methyl]-N,N-diethylbenzamide], the Ki on k opioidergic receptors (3H-U 69.593, CD1 mouse brain membranes, 25° C., 60 minutes, read-out: Ki k) came out at 4.8 ± 0.9 nM; at δ opioidergic receptors, 0.23 ± 0.03 nM.

For the molecule `C=CCN1C2CCC1C1CCC2N1C(c1ccc(C(=O)N(CC)CC)cc1)c1cccc(OC)c1` (stereo not shown) [Example 6.1, 4-[(10-allyl-9,10-diazatricyclo[4.2.1.1^2,5]dec-9-yl)-(3-methoxyphenyl)methyl]-N,N-diethylbenzamide], the inhibitory constant (Ki) turned out to be 55 ± 25 nM on k opioidergic receptors and 0.203 ± 0.032 nM at δ opioidergic receptors.

The values above are taken from patent publication US8609659B2, “Substituted 3,8-diazabicyclo[3.2.1]octane compounds” (Neuroscienze Pharmaness S.C.A.R.L., priority 2009, dated 2013).
